The target in the assay is T1, recombinant human CCR5 receptor (Homo sapiens, UniProt P51681).
T1 construct: expressed in transfected cells; host or cells: Chinese hamster ovary (CHO) cells; membranes
As to the kind of experiment: Radioligand binding assay for inhibition of the binding of MIP-1α. The settings on record: displacement of 0.1 nM iodinated MIP-1α; membranes of Chinese hamster ovary cells expressing CCR5. As for the experimental part:
Biological Assay for the Ability of Compounds to Inhibit the Binding of MIP-1α This ability is assessed using an in vitro radioligand binding assay. Membranes are prepared from Chinese hamster ovary cells which express the recombinant human CCR5 receptor. These membranes are incubated with 0.1 nM iodinated MIP-1α, scintillation proximity beads and various concentrations of the compounds of the invention in 96-well plates. The amount of iodinated MIP-1α bound to the receptor is then determined by scintillation counting.

SMILES strings stand for the structures. pIC50: −log10 of the molar value. Some results are limits rather than exact numbers.

Broadly, the pIC50 is the negative decadic logarithm of the IC50, by convention in mol/L.

T1 sequence (P51681 whole entry): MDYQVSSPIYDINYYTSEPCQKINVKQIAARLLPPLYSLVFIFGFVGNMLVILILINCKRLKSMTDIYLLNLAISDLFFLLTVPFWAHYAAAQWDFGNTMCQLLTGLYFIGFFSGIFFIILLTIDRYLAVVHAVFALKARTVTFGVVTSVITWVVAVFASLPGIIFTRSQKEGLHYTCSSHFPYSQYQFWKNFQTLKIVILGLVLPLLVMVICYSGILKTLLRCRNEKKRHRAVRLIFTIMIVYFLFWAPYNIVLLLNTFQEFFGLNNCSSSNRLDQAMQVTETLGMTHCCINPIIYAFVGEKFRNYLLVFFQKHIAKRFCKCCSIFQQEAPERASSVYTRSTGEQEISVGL

For `CC(C)N1CCO[C@@H](CN2CCN(C(=O)Nc3cccs3)CC2)C1` [Example 188, 4-{[(2S)-4-isopropylmorpholin-2-yl]methyl}-N-2-thienylpiperazine-1-carboxamide], the pIC50 was more than 5.00.

Take `CC(C)N1CCO[C@@H](CN2CCN(C(=O)Nc3ccc(C(F)(F)F)nc3)CC2)C1` [Example 192, 4-{[(2S)-4-isopropylmorpholin-2-yl]methyl}-N-[6-(trifluoromethyl)pyridin-3-yl]piperazine-1-carboxamide]: the pIC50 is more than 5.00.

With `Cc1nn(C)cc1CN1CCC[C@@H](CN2CCN(C(=O)Nc3ccc(Cl)c(Cl)c3)CC2)C1` [Example 197, N-(3,4-Dichlorophenyl)-4-({(3R)-1-[(1,3-dimethyl-1H-pyrazol-4-yl)methyl]piperidin-3-yl}methyl)piperazine-1-carboxamide], the pIC50 is more than 5.00.

Consider `O=C(Nc1ccc(Cl)c(Cl)c1)N1CCN(C[C@@H]2CCCN(Cc3c[nH]nc3-c3cccs3)C2)CC1` [Example 199, N-(3,4-Dichlorophenyl)-4-[((3R)-1-{[3-(2-thienyl)-1H-pyrazol-4-yl]methyl}piperidin-3-yl)methyl]piperazine-1-carboxamide], for which the negative logarithm of the IC50 (pIC50) was more than 5.00.

In the case of `O=C(Nc1ccc(Cl)c(Cl)c1)N1CCN(C[C@@H]2CCCN(Cc3c[nH]nc3-c3ccccc3)C2)CC1` [Example 200, N-(3,4-Dichlorophenyl)-4-({(3R)-1-[(3-phenyl-1H-pyrazol-4-yl)methyl]piperidin-3-yl}methyl)piperazine-1-carboxamide], the pIC50 was more than 5.00.

As for `O=C(Nc1ccc(Cl)c(Cl)c1)N1CCN(C[C@@H]2CCCN(CCC3CCOCC3)C2)CC1` [Example 203, N-(3,4-Dichlorophenyl)-4-({(3R)-1-[2-(tetrahydro-2H-pyran-4-yl)ethyl]piperidin-3-yl}methyl)piperazine-1-carboxamide], the pIC50 was more than 5.00.

Take `O=C(Nc1ccc(Cl)c(Cl)c1)N1CCN(C[C@@H]2CCCN(CCC3CCNCC3)C2)CC1` [Example 205, N-(3,4-Dichlorophenyl)-4-{[(3R)-1-(2-piperidin-4-ylethyl)piperidin-3-yl]methyl}piperazine-1-carboxamide]: the pIC50 is more than 5.00.

On to `CN1CCN(C)C(CN2CCN(C(=O)Nc3ccc(Cl)c(Cl)c3)CC2)C1` (stereo not drawn) [Example 209, 1-{[1,4-Dimethylpiperazin-3-yl]methyl}-N-(3,4-dichlorophenyl)piperazine-4-carboxamide], for which the negative logarithm of the IC50 (pIC50) is more than 5.00.

As to `CN1CCN[C@@H](C(=O)N2CCN(C(=O)Nc3ccc(Cl)c(Cl)c3)CC2)C1` [Example 210, N-(3,4-Dichlorophenyl)-4-{[(2R)-4-methylpiperazin-2-yl]carbonyl}piperazine-1-carboxamide], the pIC50 was more than 5.00.

In the case of `CC(C)N1CCN[C@@H](C(=O)N2CCN(C(=O)Nc3cccc(Cl)c3)CC2)C1` [Example 211, N-(3-chlorophenyl)-4-{[(2R)-4-isopropylpiperazin-2-yl]carbonyl}piperazine-1-carboxamide], the negative logarithm of the IC50 (pIC50) is more than 5.00.

Take `CC(C)N1CCN[C@@H](C(=O)N2CCN(C(=O)Nc3ccc(C(F)(F)F)cc3)CC2)C1` [Example 212, 4-{[(2R)-4-isopropylpiperazin-2-yl]carbonyl}-N-[4-(trifluoromethyl)phenyl]piperazine-1-carboxamide]: the pIC50 is more than 5.00.

With `CC(C)N1CCN[C@@H](C(=O)N2CCN(C(=O)Nc3ccc(Cl)c(C(F)(F)F)c3)CC2)C1` [Example 213, N-[4-chloro-3-(trifluoromethyl)phenyl]-4-{[(2R)-4-isopropylpiperazin-2-yl]carbonyl}piperazine-1-carboxamide], the negative logarithm of the IC50 (pIC50) is more than 5.00.

`CC(C)N1CCN[C@@H](C(=O)N2CCN(C(=O)Nc3cccc(C(F)(F)F)c3)CC2)C1` [Example 214, 4-{[(2R)-4-isopropylpiperazin-2-yl]carbonyl}-N-[3-(trifluoromethyl)phenyl]piperazine-1-carboxamide]: the negative-log IC50 (pIC50) was more than 5.00.

In the case of `CC(C)N1CCN[C@@H](C(=O)N2CCN(C(=O)Nc3ccc(Cl)cc3)CC2)C1` [Example 215, N-(4-chlorophenyl)-4-{[(2R)-4-isopropylpiperazin-2-yl]carbonyl}piperazine-1-carboxamide], the pIC50 is more than 5.00.

On to `CC(C)N1CCN[C@@H](C(=O)N2CCN(C(=O)Nc3ccc(F)c(Cl)c3)CC2)C1` [Example 216], for which the pIC50 is more than 5.00.

In the case of `Cc1ccc(NC(=O)N2CCN(C(=O)[C@H]3CN(C(C)C)CCN3)CC2)cc1F` [Example 218, N-(3-fluoro-4-methylphenyl)-4-{[(2R)-4-isopropylpiperazin-2-yl]carbonyl}piperazine-1-carboxamide], the pIC50 was more than 5.00.

In the case of `CCC(C)N1CCN[C@@H](C(=O)N2CCN(C(=O)Nc3ccc(Cl)c(Cl)c3)CC2)C1` (stereo partly drawn) [Example 220, 4-{[(2R)-4-sec-butylpiperazin-2-yl]carbonyl}-N-(3,4-dichlorophenyl)piperazine-1-carboxamide], the pIC50 is more than 5.00.

For `O=C(Nc1ccc(Cl)c(Cl)c1)N1CCN(C(=O)[C@H]2CN(C3CCOCC3)CCN2)CC1` [Example 221, N-(3,4-dichlorophenyl)-4-{[(2R)-4-(tetrahydro-2H-pyran-4-yl)piperazin-2-yl]carbonyl}piperazine-1-carboxamide], the pIC50 is more than 5.00.

As for `O=C(Nc1ccc(Cl)c(Cl)c1)N1CCN(C[C@H]2CCN([C@H]3CC[C@](O)(c4cccnc4)CC3)C2)CC1` [Example 228, N-(3,4-dichlorophenyl)-4-{[(3R)-1-(cis-4-hydroxy-4-pyridin-3-ylcyclohexyl)pyrrolidin-3-yl]methyl}piperazine-1-carboxamide], the negative logarithm of the IC50 (pIC50) was more than 5.00.

For `O=C(Nc1ccc(Cl)c(Cl)c1)N1CCN(C[C@@H]2CCN([C@H]3CC[C@](O)(c4nccs4)CC3)C2)CC1` [Example 229, N-(3,4-dichlorophenyl)-4-({(3S)-1-[cis-4-hydroxy-4-(1,3-thiazol-2-yl)cyclohexyl]pyrrolidin-3-yl}methyl)piperazine-1-carboxamide], the pIC50 was more than 5.00.

Turning to `CC(C)N1CC[C@@H](CN2CCN(C(=O)Nc3ccc(Cl)c(Cl)c3)CC2)C1` [Example 231, N-(3,4-dichlorophenyl)-4-{[(3S)-1-isopropylpyrrolidin-3-yl]methyl}piperazine-1-carboxamide], the negative-log IC50 (pIC50) is more than 5.00.

Turning to `O=C(Nc1ccc(Cl)c(Cl)c1)N1CCN(C[C@H]2CCN([C@H]3CC[C@H](O)CC3)C2)CC1` [Example 232, N-(3,4-dichlorophenyl)-4-{[(3R)-1-(trans-4-hydroxycyclohexyl)pyrrolidin-3-yl]methyl}piperazine-1-carboxamide], the negative-log IC50 (pIC50) was more than 5.00.

On to `C[C@@H](Cc1ccc(F)cc1)N1CCO[C@@H](CN2CCN(C(=O)Nc3ccc(F)c(Cl)c3)CC2)C1` [Example 233, N-(3-chloro-4-fluorophenyl)-4-({(2S)-4-[(1S)-2-(4-fluorophenyl)-1-methylethyl]morpholin-2-yl}methyl)piperazine-1-carboxamide], for which the pIC50 is more than 5.00.

Consider `C[C@H](CC1CCCC1)N1CCO[C@@H](CN2CCN(C(=O)Nc3ccc(F)c(Cl)c3)CC2)C1` [Example 234, N-(3-chloro-4-fluorophenyl)-4-({(2S)-4-[(1R)-2-cyclopentyl-1-methylethyl]morpholin-2-yl}methyl)piperazine-1-carboxamide], for which the negative logarithm of the IC50 (pIC50) was more than 5.00.

`C[C@@H](CC(C)(C)O)N1CCO[C@@H](CN2CCN(C(=O)Nc3ccc(F)c(Cl)c3)CC2)C1` [Example 235, N-(3-chloro-4-fluorophenyl)-4-({(2S)-4-[(1S)-3-hydroxy-1,3-dimethylbutyl]morpholin-2-yl}methyl)piperazine-1-carboxamide]: the negative logarithm of the IC50 (pIC50) is more than 5.00.

As for `O=C(Nc1ccccc1)N1CCN(C[C@@H]2CCCN(CCCc3ccccc3)C2)CC1` [Example 245, N-phenyl-4-[[(3R)-1-(3-phenylpropyl)-3-piperidyl]methyl]piperazine-1-carboxamide], the negative logarithm of the IC50 (pIC50) is more than 5.00.

Consider `COc1ccc(CN2CCC[C@@H](CN3CCN(C(=O)Nc4ccccc4)CC3)C2)cn1` [Example 247, 4-({(3R)-1-[(6-methoxypyridin-3-yl)methyl]piperidin-3-yl}methyl)-N-phenyl piperazine-1-carboxamide], for which the negative logarithm of the IC50 (pIC50) is more than 5.00.

Turning to `O=C(Nc1ccccc1)N1CCN(C[C@@H]2CCCN(CCc3ccc(F)cc3)C2)CC1` [Example 248, 4-[[(3R)-1-[2-(4-fluorophenyl)ethyl]-3-piperidyl]methyl]-N-phenyl-piperazine-1-carboxamide], the pIC50 was more than 5.00.

As for `O=C(Nc1ccccc1)N1CCN(C[C@@H]2CCCN(CCc3ccc(Cl)cc3)C2)CC1` [Example 249, 4-[[(3R)-1-[2-(4-chlorophenyl)ethyl]-3-piperidyl]methyl]-N-phenyl-piperazine-1-carboxamide], the pIC50 was more than 5.00.

Regarding `COc1ccc(CCN2CCC[C@@H](CN3CCN(C(=O)Nc4ccccc4)CC3)C2)cc1` [Example 250, 4-[[(3R)-1-[2-(4-methoxyphenyl)ethyl]-3-piperidyl]methyl]-N-phenyl-piperazine-1-carboxamide], the negative-log IC50 (pIC50) was more than 5.00.

For the compound `O=C(Nc1ccccc1)N1CCN(C[C@@H]2CCCN(CCc3ccc(F)cc3Cl)C2)CC1` [Example 251, 4-[[(3R)-1-[2-(2-chloro-4-fluoro-phenyl)ethyl]-3-piperidyl]methyl]-N-phenyl-piperazine-1-carboxamide], the negative logarithm of the IC50 (pIC50) was more than 5.00.

Take `O=C(Nc1ccccc1)N1CCN(C[C@@H]2CCCN(CCc3c(Cl)cccc3Cl)C2)CC1` [Example 252, 4-[[(3R)-1-[2-(2,6-dichlorophenyl)ethyl]-3-piperidyl]methyl]-N-phenyl-piperazine-1-carboxamide]: the pIC50 was more than 5.00.

With `O=C(Nc1ccccc1)N1CCN(C[C@@H]2CCCN(CCc3ccc(Cl)c(Cl)c3)C2)CC1` [Example 253, 4-[[(3R)-1-[2-(3,4-dichlorophenyl)ethyl]-3-piperidyl]methyl]-N-phenyl piperazine-1-carboxamide], the pIC50 was more than 5.00.

The record behind these values is patent US8710224B2, “Heterocyclic compounds as CCR2B antagonists” (AstraZeneca AB, priority 2004, dated 2014).
